Measurements from patent US4254155A, “Preparing neohesperidin dihydrochalcone sweetener composition” (Chimicasa GmbH, priority 1979, dated 1981).

Assay: discoloration / colour of aqueous NHDC solution
Type: physicochemical
Settings: over a period of time
Source text: The preferred acidulants are weak organic C1 -C6 organic mono- or di-carboxylic acids.
The acidulant-like malic or citric acid is incorporated to lower the pH to less than 6.5, in order to remove the yellow color formed in aqueous solutions of NHDC-based compositions.

discoloration of aqueous NHDC solution: yellow discoloration
Compound: COc1ccc(CCC(=O)c2c(O)cc(O[C@@H]3O[C@H](CO)[C@@H](O)[C@H](O)[C@H]3O[C@@H]3O[C@@H](C)[C@H](O)[C@@H](O)[C@H]3O)cc2O)cc1O [NHDC, Neohesperidin dihydrochalcone]
